In the supplement of paper PMC10733146:

What was measured:
Assay in all cases: viability relative to DMSO control (fraction); higher = less drug effect (more viable cells)
Conditions in all cases: 48 h
[1] = system: primary ALL patient cells (S088)
Summary of the method: (§1)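 Primary mononuclear tumour cells (Ficoll-isolated from blood or bone marrow, or processed lymph node; fresh or cryopreserved) were plated at 4 × 10^4 cells per well in 384-well plates with pre-plated compounds at five concentrations, one well each. Medium was RPMI-1640 with penicillin/streptomycin, L-glutamine and human serum, at 37 °C and 5% CO2 for 48 h. Viability was read as CellTiter-Glo luminescence relative to the median of 16 inner DMSO wells.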

[2] = system: primary AML patient cells (S019)
Summary of the method: as §1

[3] = system: primary AML patient cells (S089)
Summary of the method: as §1

[4] = system: primary AML patient cells (S017)
Summary of the method: as §1

[5] = system: primary ALL patient cells (S048)
Summary of the method: as §1

[6] = system: primary AML patient cells (S021)
Summary of the method: as §1

[7] = system: primary AML patient cells (S055)
Summary of the method: as §1

[8] = system: primary B-PLL patient cells (S016)
Summary of the method: as §1

[9] = system: primary AML patient cells (S002)
Summary of the method: as §1

[10] = system: primary AML patient cells (S091)
Summary of the method: as §1

[11] = system: primary MCL patient cells (S053)
Summary of the method: as §1

[12] = system: primary AML patient cells (S009)
Summary of the method: as §1

[13] = system: primary AML patient cells (S079)
Summary of the method: as §1

[14] = system: primary AML patient cells (S025)
Summary of the method: as §1

[15] = system: primary DLBCL patient cells (S082)
Summary of the method: as §1

[16] = system: primary AML patient cells (S060)
Summary of the method: as §1

[17] = system: primary FL patient cells (S087)
Summary of the method: as §1

[18] = system: primary AML patient cells (S071)
Summary of the method: as §1

[19] = system: primary AML patient cells (S072)
Summary of the method: as §1

[20] = system: primary FL patient cells (S022)
Summary of the method: as §1

## CC(C)C[C@H](NC(=O)CNC(=O)c1cc(Cl)ccc1Cl)B(O)O [Ixazomib]
[1]; 0.008 µM
  viability: 0.741
[1]; 0.04 µM
  viability: 0.839
[1]; 0.2 µM
  viability: 0.793
[1]; 1 µM
  viability: 0.851
[1]; 5 µM
  viability: 0.996
[2]; 0.008 µM
  viability: 0.525
[2]; 0.04 µM
  viability: 0.757
[2]; 0.2 µM
  viability: 0.633
[2]; 1 µM
  viability: 0.786
[2]; 5 µM
  viability: 0.936
[3]; 0.008 µM
  viability: 1.07
[3]; 0.04 µM
  viability: 0.69
[3]; 0.2 µM
  viability: 0.968
[3]; 1 µM
  viability: 0.583
[3]; 5 µM
  viability: 0.627
[4]; 0.008 µM
  viability: 0.923
[4]; 0.04 µM
  viability: 0.963
[4]; 0.2 µM
  viability: 0.834
[4]; 1 µM
  viability: 0.942
[4]; 5 µM
  viability: 0.979
[5]; 0.008 µM
  viability: 1.04
[5]; 0.04 µM
  viability: 0.94
[5]; 0.2 µM
  viability: 0.961
[5]; 1 µM
  viability: 0.994
[5]; 5 µM
  viability: 1.05
[6]; 0.008 µM
  viability: 0.927
[6]; 0.04 µM
  viability: 1
[6]; 0.2 µM
  viability: 0.983
[6]; 1 µM
  viability: 1.14
[6]; 5 µM
  viability: 1.09
[7]; 0.008 µM
  viability: 0.936
[7]; 0.04 µM
  viability: 0.984
[7]; 0.2 µM
  viability: 0.953
[7]; 1 µM
  viability: 0.992
[7]; 5 µM
  viability: 0.941
[8]; 0.008 µM
  viability: 0.929
[8]; 0.04 µM
  viability: 0.946
[8]; 0.2 µM
  viability: 0.987
[8]; 1 µM
  viability: 1
[8]; 5 µM
  viability: 0.913
[9]; 0.008 µM
  viability: 0.843
[9]; 0.04 µM
  viability: 0.979
[9]; 0.2 µM
  viability: 0.932
[9]; 1 µM
  viability: 0.972
[9]; 5 µM
  viability: 0.933
[10]; 0.008 µM
  viability: 1.07
[10]; 0.04 µM
  viability: 0.874
[10]; 0.2 µM
  viability: 1.13
[10]; 1 µM
  viability: 0.811
[10]; 5 µM
  viability: 0.8
[11]; 0.008 µM
  viability: 0.872
[11]; 0.04 µM
  viability: 0.954
[11]; 0.2 µM
  viability: 0.945
[11]; 1 µM
  viability: 0.972
[11]; 5 µM
  viability: 0.883
[12]; 0.008 µM
  viability: 1.09
[12]; 0.04 µM
  viability: 0.981
[12]; 0.2 µM
  viability: 1.08
[12]; 1 µM
  viability: 1.03
[12]; 5 µM
  viability: 1.09
[13]; 0.008 µM
  viability: 0.988
[13]; 0.04 µM
  viability: 0.914
[13]; 0.2 µM
  viability: 0.888
[13]; 1 µM
  viability: 1
[13]; 5 µM
  viability: 1.02
[14]; 0.008 µM
  viability: 0.932
[14]; 0.04 µM
  viability: 0.95
[14]; 0.2 µM
  viability: 0.952
[14]; 1 µM
  viability: 1.02
[14]; 5 µM
  viability: 1.08
[15]; 0.008 µM
  viability: 0.858
[15]; 0.04 µM
  viability: 0.964
[15]; 0.2 µM
  viability: 0.815
[15]; 1 µM
  viability: 1.06
[15]; 5 µM
  viability: 1.01
[16]; 0.008 µM
  viability: 1.03
[16]; 0.04 µM
  viability: 0.988
[16]; 0.2 µM
  viability: 1.03
[16]; 1 µM
  viability: 1.02
[16]; 5 µM
  viability: 1.01
[17]; 0.008 µM
  viability: 0.91
[17]; 0.04 µM
  viability: 0.975
[17]; 0.2 µM
  viability: 0.978
[17]; 1 µM
  viability: 0.96
[17]; 5 µM
  viability: 0.982
[18]; 0.008 µM
  viability: 1.01
[18]; 0.04 µM
  viability: 0.972
[18]; 0.2 µM
  viability: 0.995
[18]; 1 µM
  viability: 0.98
[18]; 5 µM
  viability: 0.974
[19]; 0.008 µM
  viability: 1.09
[19]; 0.04 µM
  viability: 0.984
[19]; 0.2 µM
  viability: 0.838
[19]; 1 µM
  viability: 0.922
[19]; 5 µM
  viability: 0.934
[20]; 0.008 µM
  viability: 0.894
[20]; 0.04 µM
  viability: 1
[20]; 0.2 µM
  viability: 0.954
[20]; 1 µM
  viability: 0.999
[20]; 5 µM
  viability: 0.979

## Nc1nc(Cl)nc2c1ncn2[C@@H]1O[C@H](CO)[C@@H](O)[C@@H]1F [Clofarabine]
[1]; 0.024 µM
  viability: 0.569
[1]; 0.12 µM
  viability: 0.254
[1]; 0.6 µM
  viability: 0.203
[1]; 3 µM
  viability: 0.173
[1]; 15 µM
  viability: 0.109
[2]; 0.024 µM
  viability: 0.918
[2]; 0.12 µM
  viability: 0.476
[2]; 0.6 µM
  viability: 0.392
[2]; 3 µM
  viability: 0.431
[2]; 15 µM
  viability: 0.345
[3]; 0.024 µM
  viability: 0.851
[3]; 0.12 µM
  viability: 0.737
[3]; 0.6 µM
  viability: 0.506
[3]; 3 µM
  viability: 0.461
[3]; 15 µM
  viability: 0.327
[4]; 0.024 µM
  viability: 1.06
[4]; 0.12 µM
  viability: 0.91
[4]; 0.6 µM
  viability: 0.538
[4]; 3 µM
  viability: 0.3
[4]; 15 µM
  viability: 0.149
[5]; 0.024 µM
  viability: 0.345
[5]; 0.12 µM
  viability: 0.0686
[5]; 0.6 µM
  viability: 0.0335
[5]; 3 µM
  viability: 0.0271
[5]; 15 µM
  viability: 0.0269
[6]; 0.024 µM
  viability: 0.755
[6]; 0.12 µM
  viability: 0.425
[6]; 0.6 µM
  viability: 0.286
[6]; 3 µM
  viability: 0.21
[6]; 15 µM
  viability: 0.201
[7]; 0.024 µM
  viability: 0.951
[7]; 0.12 µM
  viability: 0.792
[7]; 0.6 µM
  viability: 0.677
[7]; 3 µM
  viability: 0.507
[7]; 15 µM
  viability: 0.446
[8]; 0.024 µM
  viability: 0.711
[8]; 0.12 µM
  viability: 0.332
[8]; 0.6 µM
  viability: 0.0601
[8]; 3 µM
  viability: 0.034
[8]; 15 µM
  viability: 0.0319
[9]; 0.024 µM
  viability: 0.696
[9]; 0.12 µM
  viability: 0.427
[9]; 0.6 µM
  viability: 0.375
[9]; 3 µM
  viability: 0.387
[9]; 15 µM
  viability: 0.329
[10]; 0.024 µM
  viability: 0.661
[10]; 0.12 µM
  viability: 0.527
[10]; 0.6 µM
  viability: 0.482
[10]; 3 µM
  viability: 0.459
[10]; 15 µM
  viability: 0.425
[11]; 0.024 µM
  viability: 0.492
[11]; 0.12 µM
  viability: 0.356
[11]; 0.6 µM
  viability: 0.266
[11]; 3 µM
  viability: 0.255
[11]; 15 µM
  viability: 0.211
[12]; 0.024 µM
  viability: 0.585
[12]; 0.12 µM
  viability: 0.541
[12]; 0.6 µM
  viability: 0.391
[12]; 3 µM
  viability: 0.381
[12]; 15 µM
  viability: 0.258
[13]; 0.024 µM
  viability: 0.804
[13]; 0.12 µM
  viability: 0.512
[13]; 0.6 µM
  viability: 0.285
[13]; 3 µM
  viability: 0.139
[13]; 15 µM
  viability: 0.0818
[14]; 0.024 µM
  viability: 0.528
[14]; 0.12 µM
  viability: 0.46
[14]; 0.6 µM
  viability: 0.478
[14]; 3 µM
  viability: 0.492
[14]; 15 µM
  viability: 0.463
[15]; 0.024 µM
  viability: 0.834
[15]; 0.12 µM
  viability: 0.53
[15]; 0.6 µM
  viability: 0.377
[15]; 3 µM
  viability: 0.362
[15]; 15 µM
  viability: 0.319
[16]; 0.024 µM
  viability: 1.09
[16]; 0.12 µM
  viability: 1.06
[16]; 0.6 µM
  viability: 0.723
[16]; 3 µM
  viability: 0.402
[16]; 15 µM
  viability: 0.126
[17]; 0.024 µM
  viability: 0.823
[17]; 0.12 µM
  viability: 0.673
[17]; 0.6 µM
  viability: 0.587
[17]; 3 µM
  viability: 0.536
[17]; 15 µM
  viability: 0.547
[18]; 0.024 µM
  viability: 0.646
[18]; 0.12 µM
  viability: 0.298
[18]; 0.6 µM
  viability: 0.219
[18]; 3 µM
  viability: 0.217
[18]; 15 µM
  viability: 0.211
[19]; 0.024 µM
  viability: 0.863
[19]; 0.12 µM
  viability: 0.762
[19]; 0.6 µM
  viability: 0.587
[19]; 3 µM
  viability: 0.521
[19]; 15 µM
  viability: 0.407
[20]; 0.024 µM
  viability: 0.817
[20]; 0.12 µM
  viability: 0.643
[20]; 0.6 µM
  viability: 0.457
[20]; 3 µM
  viability: 0.306
[20]; 15 µM
  viability: 0.256
